Test results reported in patent publication US11986532B2 (Arvinas Operations, Inc., priority 2021, dated 2024).
Read-outs that look alike come from different tables or passages of the source.

Molecular target: T1, BCL6 (Homo sapiens, UniProt P41182)
T1 construct: endogenous in cells; host or cells: T47D breast cancer epithelial cells
Experiment: Immunofluorescence protocol for high content imaging of BCL6 (degradation) in T47D cells, 3 days compound treatment
Assay type: cell-based
Details: for DC50: read-out: Mean DC50 (nM)* category; for Dmax: read-out: Mean Dmax (%)** category
Summary of the method: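 T47D, RPMI1640/10% FBS; cpd 11-pt 3-fold, top 0.1 or 1 μM final; 3 d, 37° C. Fix 4% PFA, perm 0.1% Triton, block 3% BSA; anti-BCL6 1:300 o/n 4° C; Alexa-488 2°, CellMask-647, Hoechst. Imaged 10×, 4 fields/well.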

[1] = T47D cells, 3 days compound treatment

SMILES | DC50 [1] | Dmax [1] | Dmax (T47D) | DC50
CNC(=O)COc1cc2cc(Nc3nc(N4CCC(O[C@H]5C[C@H](N6CCC(c7ccc8c(c7F)CN(C7CCC(=O)NC7=O)C8=O)CC6)C5)CC4)ncc3Cl)ccc2n(C(C)C)c1=O (stereo partly drawn) [Compound 81, 2-({6-[(5-chloro-2-{4-[(1r,3r)-3-{4-[2-(2,6-dioxopiperidin-3-yl)-4-fluoro-1-oxo-2,3-dihydro-1H-isoindol-5-yl]piperidin-1-yl}cyclobutoxy]piperidin-1-yl}pyrimidin-4-yl)amino]-2-oxo-1-(propan-2-yl)-1,2-dihydroquinolin-3-yl}oxy)-N-methylacetamide] | < 10 nM | 50 to 70% |  | 
CNC(=O)COc1cc2cc(Nc3nc(N4CCC(CN5CC[C@]6(CCN(c7ccc8c(c7)CN([C@@H]7CCC(=O)NC7=O)C8=O)C6)C5)CC4)ncc3Cl)ccc2n(C(C)C)c1=O [Compound 2, 2-[(6-{[5-chloro-2-(4-{[(5S)-7-{2-[(3R)-2,6-dioxopiperidin-3-yl]-1-oxo-2,3-dihydro-1H-isoindol-5-yl}-2,7-diazaspiro[4.4]nonan-2-yl]methyl}piperidin-1-yl)pyrimidin-4-yl]amino}-2-oxo-1-(propan-2-yl)-1,2-dihydroquinolin-3-yl)oxy]-N-methylacetamide] | < 10 nM | ≥ 70% |  | 
CNC(=O)COc1cc2cc(Nc3nc(N4CCC(N5CCC56CN(C5CCN(c7ccc8c(c7)CN(C7CCC(=O)NC7=O)C8=O)C5)C6)CC4)ncc3Cl)ccc2n(C(C)C)c1=O (stereo not drawn) [Compound 234, 2-{[6-({5-chloro-2-[4-(6-{1-[2-(2,6-dioxopiperidin-3-yl)-1-oxo-2,3-dihydro-1H-isoindol-5-yl]pyrrolidin-3-yl}-1,6-diazaspiro[3.3]heptan-1-yl)piperidin-1-yl]pyrimidin-4-yl}amino)-2-oxo-1-(propan-2-yl)-1,2-dihydroquinolin-3-yl]oxy}-N-methylacetamide] |  |  | 50 to 70% | < 10 nM
CNC(=O)COc1cc2cc(Nc3nc(N4CCC(O[C@H]5C[C@H](N6CCC(c7ccc8c(c7F)CN(C7CCC(=O)NC7=O)C8=O)CC6)C5)CC4)ncc3Cl)ccc2n(C2CCCCC2)c1=O (stereo partly drawn) [Compound 411, 2-({6-[(5-chloro-2-{4-[(1r,3r)-3-{4-[2-(2,6-dioxopiperidin-3-yl)-4-fluoro-1-oxo-2,3-dihydro-1H-isoindol-5-yl]piperidin-1-yl}cyclobutoxy]piperidin-1-yl}pyrimidin-4-yl)amino]-1-cyclohexyl-2-oxo-1,2-dihydroquinolin-3-yl}oxy)-N-methylacetamide] |  |  | ≥ 70% | < 10 nM
CNC(=O)COc1cc2cc(Nc3nc(N4CCC(O[C@H]5C[C@H](N6CC7CCC(C6)N7c6ccc7c(c6)C(=O)N(C6CCC(=O)NC6=O)C7=O)C5)CC4)ncc3Cl)ccc2n(C(C)C)c1=O (stereo partly drawn) [Compound 370, 2-({6-[(5-chloro-2-{4-[(1r,3r)-3-{8-[2-(2,6-dioxopiperidin-3-yl)-1,3-dioxo-2,3-dihydro-1H-isoindol-5-yl]-3,8-diazabicyclo[3.2.1]octan-3-yl}cyclobutoxy]piperidin-1-yl}pyrimidin-4-yl)amino]-2-oxo-1-(propan-2-yl)-1,2-dihydroquinolin-3-yl}oxy)-N-methylacetamide] |  |  | < 50% | 10 to 50 nM
CNC(=O)COc1cc2cc(Nc3nc(N4CCC(CN5CCC6(CN(c7ccc8c(c7)CN(C7CCC(=O)NC7=O)C8=O)C6)C(F)(F)C5)CC4)ncc3Cl)ccc2n(C(C)C)c1=O (stereo not drawn) [Compound 90, 2-{[6-({5-chloro-2-[4-({2-[2-(2,6-dioxopiperidin-3-yl)-1-oxo-2,3-dihydro-1H-isoindol-5-yl]-5,5-difluoro-2,7-diazaspiro[3.5]nonan-7-yl}methyl)piperidin-1-yl]pyrimidin-4-yl}amino)-2-oxo-1-(propan-2-yl)-1,2-dihydroquinolin-3-yl]oxy}-N-methylacetamide] | < 10 nM | 50 to 70% |  | 
